Holding throughout (assay): NCI-60 cell line screen, 48 h
Test [1] relates to HOP-92 NSCLC.
Test [2] relates to SW-620 colon.
Test [3] has as its system A549 NSCLC.
In test [4] the test system is SK-MEL-2 melanoma.
The subject of test [5] is LOX IMVI melanoma.
Test [6] has as its system 786-0 renal.
For test [7], the system named is OVCAR-5 ovarian.
Test [8] has as its system RPMI-8226 leukemia.
The test system of test [9] is BT-549 breast.
The test system of test [10] is MOLT-4 leukemia.

Molecules are shown by their SMILES. Several values for one entry are separate records, joined by “and”; a condition that tells them apart may be missing. Equal entries are not always repeated.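 The compound was tested at five concentrations on cells cultured in 96-well plates, with a 48-hour exposure period. GI50 = concentration required for 50% inhibition of growth. Definition used: TGI = concentration required for complete inhibition of growth.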

For the compound `Cc1cn(-c2cc(NC(=O)c3ccc(C)c(Nc4nccc(-c5cccnc5)n4)c3)cc(C(F)(F)F)c2)cn1`, the TGI is greater than 100 µM in [1]; greater than 40.9 µM in [2]; > 10 µM and 7.76 µM in [3]; > 10 µM and 10.4 µM in test [4]; > 10 µM and 26.5 µM in [5]; > 10 µM and 7.1 µM in [6]. The TGI in test [7] is > 10 µM and 16.4 µM; in test [8], greater than 100 µM; in test [9] it was > 10 µM and 10 µM; in test [10] it was greater than 37.2 µM. The GI50 in test [2] was 4.44 µM and 3.43 µM; in test [3], 5.31 µM and 2.68 µM; in test [4], 2.19 µM and 2.1 µM; in test [5], 2.77 µM and 5.57 µM; in test [6], > 10 µM and 2.24 µM; in test [7], > 10 µM and 3.48 µM. Besides, the GI50 in [8] is 2.29 µM and 2.25 µM; in [9] it was 5.38 µM and 3.57 µM; in [10], 3.21 µM and 1.6 µM.
For the compound `O=C1c2ccccc2-c2c1c1ccccc1c(=O)n2CCCn1ccnc1`, the GI50 is 1.83 µM in test [1]; 0.949 µM in test [2]; 1.87 µM in test [3]; 7.78 µM in [4]; 0.924 µM in test [5]; 1.74 µM in test [6]. The GI50 was 3.05 µM in test [7], 0.73 µM in test [8], 3.36 µM in test [9] and 0.274 µM in test [10]. In addition, the TGI in test [1] was 6.45 µM; in test [2], 30.2 µM; in [3], 4.74 µM; in test [4], greater than 100 µM; in test [5], 4.33 µM; in [6] it was 7.72 µM. Besides, the TGI in test [7] was 53.6 µM; in test [8] it was 6.26 µM; in test [9] it was greater than 100 µM; in test [10], 0.763 µM.
On to `CN(Cc1cc(C(C)(C)C)cc(Br)c1O)Cc1cc(C(C)(C)C)cc(Br)c1O`, for which the TGI in [1] worked out at 12.8 µM; in [2], 16.9 µM; in test [3], 13.7 µM; in test [4], 5.86 µM; in test [5] it was 14.8 µM; in [6], 13.8 µM. In addition, the TGI in test [7] amounted to 18.5 µM; in test [8], 6.79 µM; in test [9], 14.4 µM; in test [10], 19.9 µM.

For the origin of these results see PubChem BioAssay (NCI).
